Results published in patent publication US6818630B1, “Biologically active materials” (ML Laboratories PLC, priority 1999, dated 2004).

System: B16F10 murine melanoma
Experiment: Anticancer activity and survival in C57 black mice bearing s.c. B16F10 melanoma
Assay type: in vivo, mouse
Experimental: Twenty four C57 black mice were injected subcutaneously (s.c.) with 10^5 B16F10 murine melanoma cells as described above and then monitored daily for well-being and the presence of palpable tumours. When the tumours were palpable, mice were randomly assigned into groups of six and their tumours measured with a micrometer gauge. Tumour size and mouse body weight is recorded. Each group is then injected intra-peritoneally with either sterile saline (negative control), free doxorubicin (5 mg kg^−1) in sterile saline or dextrin-doxorubicin (11.8 wt %, 34% succinolyation) at either 5 mg kg^−1 or 10 mg kg^−1, on days 0,1 and 2. The mice were monitored daily and tumour size and body weight recorded. Once the tumour area exceeded 2.89 cm^2 the mice were culled according to UKCCCR guidelines. Mouse survival is then expressed as % T/C (test/control saline).

## COc1cccc2c1C(=O)c1c(O)c3c(c(O)c1C2=O)C[C@@](O)(C(=O)CO)C[C@@H]3O[C@H]1C[C@H](N)[C@H](O)[C@H](C)O1 [doxorubicin]
5 mg kg^-1 i.p.
  anticancer activity: not active
  body weight / toxicity: drop in body weight consistent with toxicity
5 mg kg^-1 i.p. on day 0,1,2
  Toxic deaths: 0/6
5 mg kg^-1 i.p. on day 0,1,2, N = 6
  Days survival after treatment (mean ± SD): 4.5 ± 0.5^ns days
5 mg kg^-1 i.p. on day 0,1,2, survival test/control saline
  T/C (%): 103%
